Data set [1] addresses Galectin 1 and integrin aBV6 (Homo sapiens, UniProt P09382). The experiment in a line: ELISA format with pairs of galectins and integrins. To be noted: FIG. 15. The data set is classed as biochemical. On the technique in general: An ELISA detects its analyte on a solid surface through an enzyme-linked reagent.
Data set [2] concerns the target T1, Galectin-3 (Homo sapiens, UniProt P17931). Nature of the data set: Fluorescent polarization assay with fluorescent ligand. The data set is classed as binding. The conditions noted are these: for inhibition of Galectin-3 CRD specific fluorescent-ligand: Fluorescent polarization, inhibition curves.
Target sequence in this assay (P17931 whole entry): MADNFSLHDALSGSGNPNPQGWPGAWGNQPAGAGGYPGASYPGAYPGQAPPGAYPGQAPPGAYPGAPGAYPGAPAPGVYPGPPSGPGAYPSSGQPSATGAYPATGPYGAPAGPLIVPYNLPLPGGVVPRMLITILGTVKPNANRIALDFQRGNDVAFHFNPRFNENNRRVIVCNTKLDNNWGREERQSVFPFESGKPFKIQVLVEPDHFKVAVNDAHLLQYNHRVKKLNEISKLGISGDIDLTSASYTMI
The target in data set [3] is T1, Galectin-3. The experiment in a line: ELISA of Galectin-3 binding inhibition (anti-Galectin-3 antibodies). From the text:
(§1) Experiments have been performed to evaluate the physical interaction of galectin proteins with these various biological ligands mediating cellular functions.
Target sequence in this assay (P17931 whole entry): as above

Data set [4] has as its system Galectin-3. Nature of the data set: Galectin-3 expression in TGFb1 stimulated LX-2 stellate cells, flow cytometry. The data set is classed as cell-based. The conditions noted are these: TGFb1, 5 days serum starved stimulated LX-2 cells. An excerpt: TGFb1 stimulates hepatic stellate cells into the fibrogenesis pathway leading to secretion of collagen and other fibrosis biomarkers. […] While it is known that lactose has binding affinity to Gal-3, galactose lacks this affinity. […] The result confirmed this hypothesis.

For data set [5], the target named is Gal-3/integrins (αVβ3, αVβ6, αMβ2) (Homo sapiens, UniProt P17931). Nature of the data set: gal-3/integrin interaction ELISA assay. The conditions noted are these: compared with TD-139 (G240); FIG. 10, 11A-11C. In kind it is biochemical.
Sequence of Gal-3/integrins (αVβ3, αVβ6, αMβ2) (P17931 2-250 limits assumed): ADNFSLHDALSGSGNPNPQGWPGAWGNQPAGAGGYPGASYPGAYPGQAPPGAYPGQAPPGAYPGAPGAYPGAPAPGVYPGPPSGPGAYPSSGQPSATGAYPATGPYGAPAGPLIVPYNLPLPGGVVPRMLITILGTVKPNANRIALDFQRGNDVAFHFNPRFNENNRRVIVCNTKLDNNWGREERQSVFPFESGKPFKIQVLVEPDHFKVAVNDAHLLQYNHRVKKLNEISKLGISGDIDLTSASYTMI
Excerpt: as §1

For data set [6], the system named is MCP-1. The experiment in a line: In-vitro inflammatory model, MCP-1 in endotoxin stressed THP-1 monocytes. The conditions noted are these: THP-1 stimulated with endotoxin for 5 days. In kind it is cell-based. Here is the method:
A model of macrophage polarization was set up, starting from THP-1 monocytes culture which is differentiated into inflammatory macrophages using PMA (Phorbol 12-myristate 13-acetate) for 2-4 days. Once differentiated (MO macrophages), the macrophages were induced with LPS or LPS and IFN-gamma for macrophage activation (M1) to inflammatory stage for 1-3 days. Array of cytokines and chemokines were analyzed to confirm the polarization of THP-1-derived macrophages to inflammatory stage. The impact of the anti-galectin 3 compounds on macrophage polarization was assessed first by monitoring cell viability using a colorimetric method (using a tetrazolium reagent) to determine the number of viable cells in proliferation or cytotoxicity assays (Promega, The CellTiter 96® AQueous One Solution Cell Proliferation Assay which contains a novel tetrazolium compound [3-(4,5-[…])-5-(3-carboxymethoxyphenyl)-2-(4-sulfophenyl)-2H-tetrazolium, inner salt; MTS] and an electron coupling reagent (phenazine ethosulfate; PES)) and inflammatory stage evaluated by a quantitatively measure of the chemokine Monocyte Chemoattractant Protein-1 (MCP-1/CCL2), a key protein that regulates migration and infiltration of monocytes/macrophages in cellular process of inflammation. Follow-up testing for the expression and secretion of other cytokines and chemokines were done for leading active compounds. […]

Data set [7] has as its target Galectin-9 and integrin aMB2 (Homo sapiens, UniProt O00182). The experiment in a line: ELISA format with pairs of galectins and integrins. In kind it is biochemical. The conditions noted are these: FIG. 15.
Data set [8] has as its system HTB-38 cells. The experiment in a line: Cell culture viability, HTB-38. The data set is classed as cell-based. The conditions noted are these: HTB-38, exposed over 3 days in standard growth media. Here is the method: Procedure for HTB-38 Cells ([…]) was as follow:
1. HTB-38 cells were resuspended in culture media containing 8 ng/ml h-IFN-gamma, 4× Pen/Strep and 10% Fetal Bovine Serum (Gibco lot# 1260930). 2. Cells were transferred at 100μl/well in assay plate (4,000-10,000 cells/well, passage# 4-30). 3. Tested compound was diluted serially in assay media as above, usually in range of 100 μg/ml to 20 ng/mL 4. 100 μl/well serial diluted compound was added in duplicate to cells. Final volume of each well was 200 μl, containing 4 ng/ml h-IFN-gamma, 2× Pen/Strep, 5. Cells were Incubate 60-90 hours at 37° C. 6. 20 μl of Promega Substrate [CellTiter 96 Aqueous One Solution] Reagent was added to each well. 7. Cells were incubated at 37° C. for 4-8 hrs and read OD at 490 nm.
(§2) Cells were exposed to the G-625 over 3 days in standard growth media.

The test system of data set [9] is MCF-7 cells. The experiment in a line: Cell culture viability, MCF-7. To be noted: MCF-7, exposed over 3 days in standard growth media. The data set is classed as cell-based. Here is the method:
Procedure for MCF-7 Cells ([…]) was as follow:
1. MCF-7 cells were resuspended in culture media containing 4× Pen/Strep and 0.25% Fetal Bovine Serum (Gibco lot# 1202161). 2. 100 ul media was added with approximately 4,000-10,000 cells/well, passage # 5 up to 30) and cells were incubated for at least 24 hrs at 37° C. 3. Tested compound was diluted serially in assay media as above, usually at a range of 100 μg/ml to 20 ng/mL 4. […] serial diluted compound was added in duplicate to cells in assay plate. Final volume of each well was […], (containing 2× Pen/Strep, 0.25% FBS and compound as indicated 5. Cells were incubated 60-80 hours at 37° C. 6. […] of Promega Substrate [CellTiter 96 Aqueous One Solution] Reagent was added to each well. 7. Cells were incubated 37° C. for 4-8 hrs and read OD at 490 nm.
as §2

The target in data set [10] is gal-3 with Integrin (aMB2) (Homo sapiens, UniProt P17931). Nature of the data set: gal-3/integrin interaction ELISA, Integrin (aMB2). In kind it is biochemical. The conditions noted are these: FIG. 11D and 11E.
Sequence of gal-3 with Integrin (aMB2) (P17931 whole entry): as the sequence (P17931 whole entry) above
For data set [11] the following is noted: pulmonary administration; cited from earlier work.
Data set [12] deals with T1, Galectin-3. To be noted: cited from earlier work.
Target sequence in this assay (P17931 whole entry, species assumed): as the sequence (P17931 whole entry) above

Sequence of Galectin 1 and integrin aBV6 (P09382 whole entry, species assumed): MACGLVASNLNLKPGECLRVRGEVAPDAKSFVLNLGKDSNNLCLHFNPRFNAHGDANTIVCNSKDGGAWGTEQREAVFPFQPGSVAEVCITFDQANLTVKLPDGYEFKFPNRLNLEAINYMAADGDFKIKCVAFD
Sequence of Galectin-9 and integrin aMB2 (O00182 whole entry, species assumed): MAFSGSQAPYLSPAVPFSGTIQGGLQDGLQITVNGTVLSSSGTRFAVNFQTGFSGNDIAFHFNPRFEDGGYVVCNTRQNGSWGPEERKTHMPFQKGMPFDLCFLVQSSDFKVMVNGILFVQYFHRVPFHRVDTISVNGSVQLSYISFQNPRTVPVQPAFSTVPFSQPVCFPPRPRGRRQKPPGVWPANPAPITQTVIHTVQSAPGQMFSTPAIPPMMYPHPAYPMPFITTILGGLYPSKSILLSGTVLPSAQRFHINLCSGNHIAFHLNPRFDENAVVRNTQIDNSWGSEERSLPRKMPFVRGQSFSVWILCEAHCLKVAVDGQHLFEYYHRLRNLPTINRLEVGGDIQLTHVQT

As a reminder, the IC50 is the midpoint of a concentration-inhibition curve. Read a low IC50 as greater potency in that assay. On to `OC[C@H]1O[C@@H]([Se][C@@H]2O[C@H](CO)[C@H](O)[C@H](n3cc(-c4cccc(F)c4)nn3)[C@H]2O)[C@H](O)[C@@H](n2cc(-c3cccc(F)c3)nn2)[C@H]1O` [G-625, beta-D-Galactopyranoside, 3-deoxy-3-(4-(3-fluorophenyl)-1H-1,2,3-triazol-1-yl)-beta-D-galactopyranosyl 3-deoxy-3-(4-(3-fluorophenyl)-1H-1,2,3-triazol-1-yl)-1-seleno-], for which the “inhibition of interaction between Galectin 1 and integrin aBV6” value in [1] is listed as “significantly inhibited”. Also, the IC50 in [2] was 0.259 µM; in data set [3], 0.0144 µM. The “inhibition of Galectin-3 CRD specific fluorescent-ligand” value in data set [2] is “twice better inhibitor then G-240 (TD-139)”. Moreover, the galectin-3 expression result is reported as “enhanced activity of G-625 versus G-240” in data set [4] and “inhibition of galectin-3 expression” in [4] (listed as G625). Moreover, the “inhibition of Gal-3/integrins” value in data set [5] is “more potent inhibitor of Gal-3/integrins than TD-139 (G240)”. In data set [6], the “secretion of MCP-1” value was “inhibitory effect on the inflammatory stage by reducing the secretion of MCP-1”. Further, the “inhibition of interaction between Galectin-9 and integrin aMB2” value in [7] is “significantly inhibited”. For the same compound, the “cytotoxicity (cell culture viability)” value in [8] and in [9] was “no cytotoxicity” each time.

As to `OCC1OC([Se][Se]C2OC(CO)C(O)C(n3cc(-c4cccc(F)c4)nn3)C2O)C(O)C(n2cc(-c3cccc(F)c3)nn2)C1O` (stereo not shown) [G-626], in data set [2], the 50% inhibitory concentration (IC50) was 5.29 µM and the “inhibition of Galectin-3 CRD specific fluorescent-ligand” value is “showed an inhibitory activity”. Besides, the IC50 in [3] is 1.16 µM. For the same compound, the “secretion of MCP-1” value in data set [6] is recorded as “inhibitory effect on the inflammatory stage by reducing the secretion of MCP-1”.

Consider `OC[C@H]1O[C@@H]([Se]Cc2ccc(F)c(F)c2)[C@H](O)[C@@H](n2cc(-c3cccc(F)c3)nn2)[C@H]1O` [G-656], for which the “inhibition of the interaction of gal-3 with integrin” value in data set [10] is on record as “significantly inhibit”.

Turning to `O=C(C[Se][C@@H]1O[C@H](CO)[C@H](O)[C@H](n2cc(-c3cccc(F)c3)nn2)[C@H]1O)c1ccc(F)c(F)c1` [G-662], in [10], the “inhibition of the interaction of gal-3 with integrin” value is “significantly inhibit”. Further, the “inhibition of Galectin-3 CRD specific fluorescent-ligand” value in data set [2] was “shown to inhibit the Gal-3 binding”.

Take `O=C[C@H](O)[C@@H](O)[C@@H](O)[C@H](O)CO` [Galactose, reference compound]: in data set [4], the galectin-3 expression entry is “should not have any effect”.

With `OC[C@H]1O[C@@H](O[C@H]2[C@H](O)[C@@H](O)C(O)O[C@@H]2CO)[C@H](O)[C@@H](O)[C@H]1O` (stereo partly shown) [Lactose, reference compound], in data set [4], the galectin-3 expression entry is “would have effect (at relatively high concentrations)”.

`OC[C@H]1O[C@@H](S[C@@H]2O[C@H](CO)[C@H](O)[C@H](n3cc(-c4cccc(F)c4)nn3)[C@H]2O)[C@H](O)[C@@H](n2cc(-c3cccc(F)c3)nn2)[C@H]1O` [TD-139, beta-D-Galactopyranoside, 3-deoxy-3-(4-(3-fluorophenyl)-1H-1,2,3-triazol-1-yl)-beta-D-galactopyranosyl 3-deoxy-3-(4-(3-fluorophenyl)-1H-1,2,3-triazol-1-yl)-1-thio-]: the “efficacy in mouse model of lung fibrosis” value in data set [11] is given as “effective”. For the same compound, the “binding to galectin 3” value in data set [12] is recorded as “reported to bind to galectin 3”.

(Values after patent US20230127345A1, “SELENOGALACTOSIDE COMPOUNDS FOR THE PREVENTION AND TREATMENT OF DISEASES ASSOCIATED WITH GALECTIN AND THE USE THEREOF” (GALECTIN SCIENCES, LLC, priority 2016, published 2023).)
